Test results from publication PMC7614683, “A small molecule PI3Kα activator for cardioprotection and neuroregeneration” (Nature, 2023).

Assays:
[1] = tested on: p110α-mutants D603K, D603A, 603DCN_AAA605, D603A/F1016S, L1006R, F1016S, L1006R/F1016S; assay: ADP-Glo catalytic activity, mutants in the 1938-binding pocket; assay type: biochemical, human; details: all mutants
Protocol: Expression and purification of mutants resistant to 1938 were performed as follows. Sf9 insect cells (1.5 L) were cultured in Insect-XPRESS with L-Glutamine medium (Lonza BE12-730Q) at 27°C and co-infected with baculovirus encoding the regulatory p85α-subunit [LMB-MRC plasmid OP809] and the catalytic subunit p110α-D603K [LMB-MRC plasmid OP895], D603A [OP900], 603DCN_AAA605 [OP894], D603A/F1016S [OP901], L1006R [OP897], F1016S [OP898], L1006R/F1016S [OP899] at a density of 1.6 × 10^6 cells/ml. The culture was incubated for 47 h after infection, cells were collected, flash-frozen in liquid N2 and stored at -80°C. For purification, cell pellets were resuspended in 50 ml of lysis buffer (20 mM Tris, 150 mM NaCl, 5% glycerol, 1 mM TCEP, pH 8.0) containing EDTA-free Protease inhibitor tablets (1 tablet per 50 ml of solution), 0.5 mM PEFA and 5 μl of Piece® Universal Nuclease For Cell Lysis. The suspension was sonicated for 3 min on ice, with 10 sec on and 10 sec off. […]
For characterisation of the effects of 1938 on in vitro PI3K enzymology, all reactions were performed at room temperature with 384 white-polystyrene plates (Corning #3574). […] Data was expressed as velocity (nmol of ADP generated/nmol of enzyme/sec). […] Luminescence was read using a PHERAstar® plate reader with software version 5.41, and analyses were performed using GraphPad Prism 8/9.

[2] = target: T1, mTORC1 (mTOR/RAPTOR/LST8 complex) (Homo sapiens, UniProt P42345); assay: mTORC1 in vitro kinase assay (Phos-tag gel); assay type: biochemical; details: 200 μM 1938
T1 construct: made in house
Protocol: 133 protein kinases and 7 lipid kinases were counterscreened, with 1938 used at 1 μM, using the Adapta, Lantha and Z-LYTE assays (SelectScreen Kinase Profiling Service; Thermofisher – experimental details of these assays can be found here: https://www.thermofisher.com/uk/en/home/industrial/pharma-biopharma/drug-discovery-development/target-and-lead-identification-and-validation/kinasebiology/kinase-activity-assays.html. The tree represention in KinMap[59] generated courtesy of Cell Signaling Technology, Inc. (www.cellsignal.com). mTORC1 (mTOR/RAPTOR/LST8) protein complex and ATM kinase and substrates were produced as previously described[57],[60]. Screening of 1938 was conducted using SuperSep Phos-Tag 50 μmol/l 100 x 100 x 6.6 mm 17-well (192-18001/199-18011) gels. For ATM assays, 100 nM ATM was incubated for 30 min at 30°C with 5 μM GST-p53 and 1 mM ATP, in the absence or presence of 200 μM 1938 in ATM Kinase Buffer (50 mM HEPES pH 7.5, 100 mM NaCl, 10% glycerol, 2 mM […], 5 mM MgCl2). As a positive control for ATM activation, the same reaction was carried out with 100 nM ATM/5 μM GST-p53/1 mM ATP in the presence of 100 nM Mre11-Rad50-Nbs1 (MRN) complex, a known activator of ATM[61]. […] Gels were then stained using InstantBlue™ Coomassie, and quantified using BioRad Image Lab Software. […]

SMILES: CCN1CCN(c2ccc(Nc3cc(Nc4cccc5c4N(C(C)=O)CC5)ccn3)cc2)CC1 [Compound 1938]
- activation of 1938-binding pocket p110α-mutants [1]: resistant to activation by 1938
- effect on mTORC1 activity [2]: did not affect the activity
